Here are results for 4 compounds from US20090053741A1 (priority 2005, published 2009).

By Km is commonly meant the substrate concentration at which the rate is half of its maximum.

Test [1] concerns nitric oxide synthase. Conditions: cited from earlier work; for inhibition of NOS (in words): background statement.
In test [2] the target is T1, iNOS (Mus musculus, UniProt P29477).
T1 sequence (P29477 1-1144): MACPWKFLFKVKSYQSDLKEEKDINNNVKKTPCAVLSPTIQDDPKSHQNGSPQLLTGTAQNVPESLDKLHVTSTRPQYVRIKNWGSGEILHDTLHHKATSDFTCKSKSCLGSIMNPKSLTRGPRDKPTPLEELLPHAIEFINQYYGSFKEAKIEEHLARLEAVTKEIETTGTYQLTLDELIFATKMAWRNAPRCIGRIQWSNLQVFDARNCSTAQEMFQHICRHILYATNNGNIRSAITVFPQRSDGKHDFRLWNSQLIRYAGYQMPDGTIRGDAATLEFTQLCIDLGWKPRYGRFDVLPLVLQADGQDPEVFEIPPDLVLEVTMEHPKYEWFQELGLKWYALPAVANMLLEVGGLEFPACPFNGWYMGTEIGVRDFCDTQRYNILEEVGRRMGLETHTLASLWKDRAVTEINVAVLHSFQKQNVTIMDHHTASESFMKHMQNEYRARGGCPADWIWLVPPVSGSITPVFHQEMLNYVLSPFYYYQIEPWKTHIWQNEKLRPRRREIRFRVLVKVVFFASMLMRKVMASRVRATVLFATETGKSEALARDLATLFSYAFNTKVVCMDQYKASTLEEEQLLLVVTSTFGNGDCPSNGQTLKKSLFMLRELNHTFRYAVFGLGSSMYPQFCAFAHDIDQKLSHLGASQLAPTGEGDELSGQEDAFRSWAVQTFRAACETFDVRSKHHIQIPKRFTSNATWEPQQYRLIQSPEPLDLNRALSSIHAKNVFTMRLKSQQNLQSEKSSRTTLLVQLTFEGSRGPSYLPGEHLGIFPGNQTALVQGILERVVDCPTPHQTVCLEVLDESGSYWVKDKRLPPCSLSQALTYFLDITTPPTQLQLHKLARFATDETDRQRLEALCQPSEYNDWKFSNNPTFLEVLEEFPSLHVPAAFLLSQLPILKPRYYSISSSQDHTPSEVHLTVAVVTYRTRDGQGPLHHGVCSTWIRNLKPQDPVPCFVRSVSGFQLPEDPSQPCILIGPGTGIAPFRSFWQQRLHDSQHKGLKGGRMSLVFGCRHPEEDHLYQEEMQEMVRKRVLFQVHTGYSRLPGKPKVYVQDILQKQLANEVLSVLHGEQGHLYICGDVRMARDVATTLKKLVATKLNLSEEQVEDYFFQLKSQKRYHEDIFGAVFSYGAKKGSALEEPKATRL
As to the kind of experiment: [14C]L-NMMA binding to lysates of cytokine-stimulated J774 cells (iNOS lysate), filter assay. The note with it: excess 1000-fold L-NMMA, FIG. 1, preliminary. As to the method: A=J774 stimulated, B=J774 stimulated+L-NMMA, C=control and D=control+L-NMMA.
Macrophages (J774 cells) were stimulated with a cytokine cocktail (LPS/IFN/TNF) for 24 h, to induce iNOS expression, and cell lysates were collected. […] Low molecular weight molecules were removed from lysates using 30000 MW cut-off filters. Lysates were incubated on 3000 MW filters with [^14C]L-NMMA for 15 min ([…] L-NMMA), washed 3× with cold TRIS buffer and filters counted.

For test [3], the target named is T2, bsNOS fragment (bacillus subtilis nitric oxide synthase oxygenase domain) (Bacillus subtilis, UniProt O34453).
T2 construct: made in house
T2 sequence (O34453 other isoform, or with tags, fused parts or gaps with the stated changes): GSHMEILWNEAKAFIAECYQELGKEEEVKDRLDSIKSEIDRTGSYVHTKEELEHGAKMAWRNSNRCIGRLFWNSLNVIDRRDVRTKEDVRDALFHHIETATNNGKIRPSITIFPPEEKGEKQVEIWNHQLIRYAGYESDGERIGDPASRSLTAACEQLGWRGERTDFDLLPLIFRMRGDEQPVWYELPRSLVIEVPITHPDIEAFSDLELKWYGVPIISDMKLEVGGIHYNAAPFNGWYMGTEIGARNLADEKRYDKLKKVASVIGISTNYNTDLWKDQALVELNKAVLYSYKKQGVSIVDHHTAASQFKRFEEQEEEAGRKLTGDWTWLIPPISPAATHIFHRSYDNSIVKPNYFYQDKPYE
As to the kind of experiment: [14C]L-NMMA binding to bsNOS fragment on 30000 MW cut off filters. Conditions: 1000-fold excess unlabelled L-NMMA, FIG. 2, preliminary. How it is done:
(§1) A=Control and B=excess L-NMMA.
A bacillus subtilis nitric oxide synthase oxygenase domain (“fragment”) was PCR amplified from genomic DNA with Nde1 and BamH1 sites added at the 5′ and 3′ ends respectively and cloned into pET15b vector. The bsNOS fragment corresponded to SEQ ID NO: 2 and was purified as previously described (Pant et al., Biochemistry; 2002; 41:11071-11079).
[^14C]L-NMMA (3.75 nmol) was incubated with the bsNOS fragment ([…]) on 30000 MW cut off filters in the presence and absence (Control) of 1000-fold excess unlabelled L-NMMA.

For test [4], the target named is T2, bsNOS fragment (bacillus subtilis nitric oxide synthase oxygenase domain). As to the kind of experiment: bsNOS binding to [14C]L-NMMA, PVDF filters with rapid washes. The note with it: L-NMMA 1 mM, FIG. 3. How it is done:
as §1
A modified method previously described for binding [3H]nitroarginine to mammalian NOS was used to ensure rapid washes of the bsNOS fragment complexes and ligand to reduce time for dissociation (Liu Q and Gross S S, Methods Enzymol. 1996; 268:311-24). [^14C]L-NMMA ([…] −20000 counts total) was incubated with the bsNOS fragment ([…]) in assay buffer containing: 50 mM Tris pH 7.6; 50 uM BH4, 0.5 mM DTT. Reactants were incubated for 15 min at room temperature and NOS-bound [^14C]L-NMMA was separated from free [^14C]L-NMMA using PVDF filters and 3×1 ml rapid washes in cold Tris pH 7.6. Background was determined by the addition of 1 mM L-NMMA to bsNOS in assay buffer. Filters were added to 5 ml scintillation cocktail and counted in scintillation counter (Beckmann).

For test [5], the system named is DDAH. The test can be described thus: ADMA binding to DDAH (initial studies; equilibrium dialysis and calorimetry). In general terms: In equilibrium dialysis only unbound substance equilibrates across the membrane.
Text: Secondly, the researchers tried to improve the binding of ADMA to DDAH through mutagenesis. Three more mutations were generated in E114 and around this residue. These were E114D, E114D+A115G, L18H (residue in the loop) and P80A. […] Other mutations around the active site were also generated: L161F, G116A, G116V and G116T.
Thirdly, the researchers tried to calculate a Kd for ADMA of DDAH using nuclear magnetic resonance imaging using the C249S or H162A mutant. […] Fourthly, the researchers tried a fluorophore (fluoresceine 5 maleimide or acrylodan) approach to measure the Kd for ADMA. […] Finally, the researchers generated four mutations with tryptophan: V15W and D16W (in the loop) as well as F58W and E90W (close to the active site). These four residues move in the NMR spectrum when inhibitors bind to the protein.

`CN=C(NC)NCCC[C@H](N)C(=O)O` [SDMA, symmetric dimethylarginine]: the “inhibition of NOS (in words)” value in test [1] is listed as “does not inhibit NOS”.

Turning to `CNC(=N)NCCC[C@H](N)C(=O)O` [L-NMMA, N^G-monomethyl-L-arginine], the “competition of [14C]L-NMMA binding by unlabelled ligand” value in test [2] and in test [3] was “competed out” throughout. Besides, in test [4], the “[14C]L-NMMA binding in the presence of unlabelled ligand” value is given as “reduced to background”. Besides, the “inhibition of NOS (in words)” value in test [1] is on record as “equipotent”.

Turning to `CN(C)C(=N)NCCCC(N)C(=O)O` (stereo not drawn) [ADMA, asymmetric dimethylarginine], in test [5] (inactive mutations C249S, H162A, E114Q, very high concentrations of ADMA (10 mM)), the “saturation of DDAH in calorimetry experiments” value is on record as “saturation was never reached”. Besides, the “concentrations necessary to get binding to DDAH” value in test [5] (initial studies) was “millimolar concentrations”. The “inhibition of NOS (in words)” value in test [1] was “equipotent”.

On to `N=C(N)NCCC[C@H](N)C(=O)O` [arginine], for which the Km in test [1] (nitric oxide synthase, the 3 enzymes, read-out: Km for arginine) is 7 to 19 µM.
